In patent publication US20080064730A1, “Azine Compounds for Combating Animal Pests” (BASF Aktiengesellschaft, priority 2004, published 2008):

What was measured:
Assay type in all cases: in vivo
[1] = system: Green Peach Aphid (Myzus Persicae); assay: Green peach aphid test on dipped pepper plants; details: 120 h, pepper plant leaves dipped, after 5 days, read-out: mortality in comparison with untreated controls
Protocol: • The soybean bean cyst nematode culture was maintained in a greenhouse and soybean eggs and J2 larvae were obtained for testing by dislodging soybean cysts from the roots with a sieve. The cysts were broken to release the eggs and the eggs were maintained in water. The eggs hatched after 5-7 days at 28° C. To microtiter plates containing about 150 μg of compound, 80:20 acetone was added to each well and the solution was mixed to obtain the desired compound concentration. The nematode solution was added to the plate. The plates were then sealed and placed in an incubator at 27° C. and 50% (+/−2%) relative humidity. […] II Activity Against Insects II.1 Cotton Aphid (Aphis Gossypii) • The active compounds were formulated in 50:50 acetone:water and 100 ppm Kinetics surfactant. • Cotton plants at the cotyledon stage (one plant per pot) were infested by placing a heavily infested leaf from the main colony on top of each cotyledon. The aphids were allowed to transfer to the host plant overnight, and the leaf used to transfer the aphids was removed. The cotyledons were dipped in the test solution and allowed to dry. […] II.2 Green Peach Aphid (Myzus Persicae) • The active compounds were formulated in 50:50 acetone:water and 100 ppm Kinetic® surfactant. • Pepper plants in the 2nd leaf-pair stage (variety ‘California Wonder’) were infested with approximately 40 laboratory-reared aphids by placing infested leaf sections on top of the test plants. The leaf sections were removed after 24 hr. The leaves of the intact plants were dipped into gradient solutions of the test compound and allowed to dry. Test plants were maintained under fluorescent light (24 hour photoperiod) at about 25° C. and 20-40% relative humidity. […] II.3 Bean Aphid (Aphis Fabae) • The active compounds were formulated in 50:50 acetone:water and 100 ppm Kinetics surfactant. • Nasturtium plants grown in Metro mix in the 1st leaf-pair stage (variety ‘Mixed Jewle’) were infested with approximately 2-30 laboratory-reared aphids by placing infested cut plants on top of the test plants. The cut plants were removed after 24 hr. […]

[2] = system: Soybean Cyst Nematode (Heterodera Glycine); assay: Soybean cyst nematode microtiter plate mortality test; details: after 72 hours, J2 larvae, immobility regarded as mortality, read-out: mortality compared to untreated controls
Protocol: I.2 Test Procedures for Soybean Cyst Nematode (Heterodera Glycine):
(§1) • The soybean bean cyst nematode culture was maintained in a greenhouse and soybean eggs and J2 larvae were obtained for testing by dislodging soybean cysts from the roots with a sieve. The cysts were broken to release the eggs and the eggs were maintained in water. The eggs hatched after 5-7 days at 28° C. To microtiter plates containing about 150 μg of compound, 80:20 acetone was added to each well and the solution was mixed to obtain the desired compound concentration. The nematode solution was added to the plate. The plates were then sealed and placed in an incubator at 27° C. and 50% (+/−2%) relative humidity. […] II Activity Against Insects II.1 Cotton Aphid (Aphis Gossypii) • The active compounds were formulated in 50:50 acetone:water and 100 ppm Kinetics surfactant. • Cotton plants at the cotyledon stage (one plant per pot) were infested by placing a heavily infested leaf from the main colony on top of each cotyledon. The aphids were allowed to transfer to the host plant overnight, and the leaf used to transfer the aphids was removed. The cotyledons were dipped in the test solution and allowed to dry. […]

[3] = system: Root-Knot Nematode (Meloidogyne incognita); assay: Root-knot nematode microtiter plate mortality test; details: after 72 hours, J2 nematodes, immobility regarded as mortality, read-out: mortality compared to untreated controls
Protocol: • Test compounds were prepared and formulated into aqueous formulations using acetone. The formulations were tested using root knot nematode (2nd instar) and soybean cyst nematode (2nd instar) as target species. I.1 Test Procedures for Root-Knot Nematode (Meloidogyne incognita): • Tomato plants (var. Bonny Best) were grown in the greenhouse in plastic tubs (4 to 6 plants per tub). The plants and soil (a 50:50 mixture of sand and “New Egypt” sandy loam) were infested with M. incognita J2 (to establish the “in-house” colony, M. incognita J2 were initially acquired from Auburn University). The plants were kept pruned and were used on an “as needed” basis. The tomato plants were kept in the cylinder containing hydroponic solution and aerated until the nematodes were no longer present in the solution (usually about 60 days). The cultures were checked daily by eluting a small volume (approximately 20 ml) from the bottom of a funnel attached to the cylinder into a small crystallizing dish and observed using a binocular dissecting scope. […] These were counted by putting 25 μl of the nematode solution into a well of an unused well of an assay plate. […] After 72 hours, the population mortality was read, whereby immobility of nematodes was regarded as mortality.

[4] = system: Cotton Aphid (Aphis Gossypii); assay: Cotton aphid test on dipped cotton cotyledons; details: 120 h, after 5 days, read-out: mortality in comparison with untreated controls
Protocol: as §1

| Compound | mortality at 300 ppm [1] [%] | mortality at 100 ppm [3] [%] | further results |
| --- | --- | --- | --- |
| C/C(=N\N=Cc1cc2ccccc2o1)c1cccs1 [Example 5] | > 75 |  |  |
| Cl/C(=N\N=Cc1cc2ccccc2o1)c1cccs1 [Example 1] | > 75 |  |  |
| Cl/C(=N\N=CC=Cc1ccccc1)c1cccs1 [Example 11] |  |  | mortality at 100 ppm [2]: > 95% |
| C/C(=N\N=CC=Cc1ccccc1)c1cccs1 [Example 12] | > 75 | > 95 |  |
| CS/C(=N\N=Cc1cc2ccccc2o1)c1cccs1 [Example 2] |  |  | mortality at 300 ppm [4]: > 75% |
| CO/C(=N\N=Cc1cc2ccccc2o1)c1cccs1 [Example 4] |  | > 95 |  |
